Laboratory results: patent US20240002437A1, “COMPOSITIONS AND METHODS OF TREATING INFLAMMATORY LUNG DISEASES” (priority 2020, published 2024)

Test system: mouse model of VILI
Experiment: Mouse model of VILI (high tidal volume ventilation)
Type: in vivo
Conditions: 10 mg/kg intraperitoneally 3 h before ventilation; tidal volume 35 mL/kg, 4 h
Procedure: Male C57BL/6 mice aged between 6 and 8 weeks were purchased from Jackson Laboratories (ME, USA). Mice were maintained at a room temperature of 22±1° C. in air with 40-70% humidity at least one week before experiments. Animals were randomly distributed into 4 groups (n=5 in each group): non-ventilated control mice with normal saline; non-ventilated control mice treated with the eNOS decoy peptide (d-peptide); high tidal volume with normal saline; high tidal volume with eNOS decoy peptide. Three hours before ventilation, saline or the eNOS decoy peptide (10 mg/kg body weight) were injected intraperitoneally. Before mechanical ventilation was initiated, mice were anesthetized using an intraperitoneal injection with a cocktail containing ketamine (100 mg/kg) and xylazine (5 mg/kg). The mice were then placed in a supine position on a heating pad to maintain body temperature. For the ventilation procedure, mice were orotracheally intubated with a 20 g intravenous indwelling catheter and attached to a small animal ventilator (SAR-1000, CWE Inc., USA). The ventilation parameters were set as follows: inspiration/expiration ratio, 33%; respiratory rate, 75 breaths/min; and tidal volume, 35 mL/kg (high tidal volume group). During mechanical ventilation, mice were maintained in deep anesthesia by injecting with ketamine (100 mg/kg) every 45 minutes for the duration of the 4 h study. Mice in the non-ventilated control group were allowed to spontaneously breathe. […] The pellets were then resuspended in 500 μl of PBS and the cell numbers present were determined using an automated cell counter. The BAL fluid was centrifuged again at 15,000× g at 4° C. for 15 min and the supernatant collected and stored at −80° C. until the protein concentration was measured. […]
Protein extracts were prepared using lysis buffer (50 mM Tris-HCl, pH 7.6, 0.5% Triton X-100, 20% glycerol) containing HALT™ protease inhibitor cocktail (Pierce Laboratories, Rockford, IL). […] Bands were quantified using LI-COR Image Station software. […]

How did the BALF cell number turn out when HRKKRRQRRITRKKTFKEVA [d-peptide] was run?
The BALF cell number was “decreases in the cell number”.

What about the BALF protein levels of the same sequence?
Its BALF protein levels is “decreases”.

And the “increase in pT495-eNOS induced by mechanical ventilation of the mouse lung” value?
Its value is “attenuated the increase in pT495-eNOS induced by mechanical ventilation”.
